Assay results as given in US20250375473A1, “Pharmaceutical composition for treating cancer comprising an ionic compound having metal ion binding thereto” (METAFINES.CO.LTD., priority 2018, published 2025).
Values joined by “and” are separate entries in the source; they are usually repeats but may differ in a detail not shown here. Equal entries are not always repeated.

Legend:
[1] = test system: HT-29 cell; experiment: IC50 of each drug alone, 48 h, HT-29; type: cell-based, human
Method: (§1) Then, various concentration of Example or chemical anticancer drugs (Fluorouracil (5-FU), SN-38, Paclitaxel (PTX)) were treated thereto alone.

[2] = ASCA101 in rat plasma after intravenous administration (LC-MS/MS); type: in vivo; details: 0.083 hours after intravenous administration
[3] = test system: DLD-1; experiment: Hetero salts vs homo salts, cell viability and cytotoxicity, DLD-1; type: cell-based; details: DLD-1; 10 mM
Method: (§2) Hetero salts prepared according to the examples (ASCA101, ASCA201) and homo salts were applied to colorectal cancer cell lines, and their effects on cell viability and cytotoxicity were evaluated.
(§3) Herein, “Na-ASC” refers to sodium ascorbate, “Na-DCA” refers to sodium dichloroacetate, “Ca (ASC) 2” refers to calcium ascorbate, “Ca (DCA) 2” refers to calcium dichloroacetate, and “Ca (LA) 2” refers to calcium lactate.

[4] = test system: HCT-116 cell; experiment: Co-treatment with chemical anticancer drug, growth inhibition and combinational index; details: 48 h, co-treated with Paclitaxel, PTX (μM) in c0 and Example 1 (μM) in c1 of the row
Description: As the co-delivery effect, the synergistic effect was CI≤0.85, the additive effect was 0.85<CI≤1.15, and the antagonistic effect was CI>1.15.

[5] = test system: poly (ADP-ribose) polymerase 1 (PARP-1); experiment: Western blot, PARP-1 expression in HCT-116; type: cell-based, human; details: 24 h
Method: The cultured cancer cells were pulverized with a homogenizer and centrifuged, and the expression levels of poly (ADP-ribose) polymerase 1 (PARP-1), β-catenin, VEGF and β-actin proteins contained in the lysate were measured using Western blot.

[6] = Maintenance of hetero salt form in aqueous solution (MS); type: physicochemical; details: added to water
[7] = ASCA101 in beagle dog plasma after intravenous administration (LC-MS/MS); type: in vivo
[8] = test system: colorectal cancer cell line (HT-29); experiment: MTT assay, 48 h, HT-29; details: 48 h, MTT
Method: (§6) 7 cell lines were aliquoted to each well of a 96-well plate at 5×10^3 cells, and cultured for 24 hours. […] The drug-treated cells were cultured in an incubator (37° C., 5% CO2) for 48 hours, and 5 mg/ ? MTT reagent 10 ? was added to each well and cultured for additional 4 hours. Then, culture medium was removed and DMSO 100 ? was treated to dissolve the MTT stained precipitate, and absorbance was measured at 540 nm with a microplate reader.

[9] = test system: SW480; experiment: Hetero salts vs homo salts, cell viability and cytotoxicity, SW480; type: cell-based; details: SW480; 5 mM
Method: as §2, §3

[10] = test system: stomach cancer cell line (SNU-638); experiment: MTT assay, 48 h, SNU-638; details: 48 h, MTT
Method: as §6

[11] = test system: ovarian cancer cell line (A2780); experiment: MTT assay, 48 h, A2780; details: 48 h, MTT
Method: as §6

[12] = test system: PDH enzyme; experiment: Time-dependent PDH enzyme activity in cancer cells; type: cell-based; details: DLD-1 and HT-29 cancer cells; FIG. 29
[13] = test system: colorectal cancer cell line (HCT-116); experiment: MTT assay, 48 h, HCT-116; details: 48 h; MTT; value in brackets
Method: as §6

[14] = test system: liver cancer cell line (HepG2); experiment: MTT assay, 48 h, HepG2; details: 48 h, MTT
Method: as §6

[15] = test system: HCT-116 cell; experiment: IC50 of each drug alone, 48 h, HCT-116; type: cell-based, human; details: read-out: IC50 value, HCT-116 cell
Method: as §1

[16] = test system: A549/LUC cells implanted into the lung; experiment: Lung cancer mouse model (A549/LUC orthotopic model); type: in vivo; details: 100 mg/kg IV once a day (Qdx4) for 5 weeks; vs control
Method: (§4) In order to construct an animal model with orthotopic xenotransplantation (orthotopic xenograft) and general animal model (orthotopic xenograft), A549/LUC cells and DLD-1 cells were subcultured, and then the cancer cells were injected into the lung and colon of the mice, respectively.
Since the model was directly injected with cancer cells into the mouse organ, the growth of cancer was not confirmed by observation of the mouse appearance. Therefore, in the animal model to which A549/LUC cells were injected, D-Luciferin was injected intraperitoneally every 7 days to determine the growth saturation of cancer by luminescence imaging measurement using IVIS spectrum imaging system (Xenogen) device. On the other hand, in the animal model to which DLD-1 cells were injected, after 7 days, the experimental subjects were sacrificed to determine the growth saturation of cancer. […]
The calcium salts of Examples 1 to 3 were administered to the same mouse model constructed in Test Example 5-1 (A549/LUC orthotopic model), respectively. […] Further, in order to quantify each imaging result more accurately, in vivo images were obtained by measuring ROI (Region of Interest), which is a program of IVIS spectrum (Xenogen), and the results are shown in FIG. 21.

[17] = test system: DLD-1 cells transplanted into the colon; experiment: Colorectal cancer mouse model (DLD-1 orthotopic model); type: in vivo; details: 100 mg/kg IV once a day (Qdx4) for 1 week; dissected after 1 week; vs control
Method: as §4
Since the model was directly injected with cancer cells into the mouse organ, the growth of cancer was not confirmed by observation of the mouse appearance. Therefore, in the animal model to which A549/LUC cells were injected, D-Luciferin was injected intraperitoneally every 7 days to determine the growth saturation of cancer by luminescence imaging measurement using IVIS spectrum imaging system (Xenogen) device. On the other hand, in the animal model to which DLD-1 cells were injected, after 7 days, the experimental subjects were sacrificed to determine the growth saturation of cancer.
In other words, general DLD-1 cells were transplanted into the colon to construct a colorectal cancer mouse model (DLD-1 orthotopic model), and orthotopic xenotransplantation was conducted to the lung to construct a lung cancer mouse model (A549/LUC orthotopic model).
Further, weight of cancer tissue was measured to confirm the anticancer efficacy of the inventive substance in vivo and the results are shown in FIG. 19B.

[18] = GLP toxicity studies (NOAEL), intravenous and oral; type: in vivo
Method: In detail, the ionic compound is administered in a dose ranging from 1.61 mg/kg to 64.86 mg/kg based on body weight of the subject. Reflecting the results of actual nonclinical efficacy, toxicity and clinical phase 1 PK/PD (pharmacokinetics/pharmacodynamics) studies, the clinically effective doses are expected to be in the HED (Human Equivalent Dose) ranges 1.61 mg/kg for intravenous administration and 7.22 mg/kg for oral administration-up to a maximum of 32.43 mg/kg for intravenous administration and 64.86 mg/kg for oral administration.

[19] = test system: DLD-1 cell; experiment: IC50 of each drug alone, 48 h, DLD-1; type: cell-based
Method: as §1

[20] = test system: colorectal cancer cell line (DLD-1); experiment: MTT assay, 72 h, colorectal cancer cell line; type: cell-based; details: DLD-1; 72 h; MTT
Method: (§5) The calcium salts of Examples 1 to 3 were added to each well by concentration (20 mg/ ? , mg/ ? , 0.8 mg/ ? , 0.16 mg/ ? , 0.032 mg/ ? , 0.0064 mg/ ? , 0.00128 mg/ ? , 0.000256 mg/ ? ). […] The supernatant was removed using a centrifuge, DMSO 200 ? was added to each well to dissolve the MTT stained precipitate, and OD540 value was measured at 540 nm with an ELISA reader.

[21] = test system: breast cancer cell line (MDA-MB-231); experiment: MTT assay, 72 h, breast cancer cell line; type: cell-based; details: MDA-MB-231; 72 h; MTT
Method: as §5

[22] = test system: brain cancer cell line (U87MG); experiment: MTT assay, 72 h, brain cancer cell line; type: cell-based; details: U87MG, MTT
Method: as §5

[23] = test system: pancreatic cancer cell line (PANC-1); experiment: MTT assay, 48 h, PANC-1; details: 48 h, MTT
Method: as §6

[24] = test system: lung cancer cell line (A-549); experiment: MTT assay, 48 h, A549; details: 48 h, MTT
Method: as §6

[25] = test system: human colorectal cancer cell lines (HCT-116 and HT-29); experiment: Change in ascorbic acid level in cancer cells; type: cell-based; details: 1 mM; 24 h; lysate; vs untreated control
Method: After culture, the cultured cancer cells were pulverized with a homogenizer and centrifuged, and the concentration of ascorbic acid contained in the lysate was measured using an ascorbic acid assay kit (Biovision, San Francisco, CA).

O=C([O-])C(Cl)Cl.O=C1O[C@H]([C@@H](O)CO)C([O-])=C1O.[Ca+2] [Example 1, calcium salts of dichloroacetic acid and ascorbic acid]
IC50 [1]: 1330 µM
ASCA101 concentration in rat plasma [2]: 26.835 µg/mL
cell viability, DLD-1 (10 mM) [3]: 11.43
Inhibition effect (%) [4]: 73.298% and 63.569%
concentration at which expression level of full length PARP-1 was decreased the most [5]: 0.18 mg/mL
retention of hetero salt structure in aqueous solution (MS peaks) [6]: can retain its hetero salt structure in aqueous solution
ASCA101 concentration in beagle dog plasma ([7]; 0.083 hours after intravenous administration): 26.835 µg/mL
maintenance of hetero salt form in plasma / liquid medium ([7]; plasma of rats and beagles after intravenous administration): the hetero salt form was maintained in the bloodstream
IC50 of HT-29 Colorectal cancer cell line (mg/ml) ([8]; value in brackets): (0.29) mg/ml
IC50 ([8]; read-out: IC50 mM of HT-29 Colorectal cancer cell line): 0.83 mM
cell viability, SW480 (5 mM) [9]: 20.72
IC50 of SNU-638 Stomach cancer (mg/ml) ([10]; value in brackets): (0.48) mg/ml
IC50 ([10]; read-out: IC50 mM of SNU-638 Stomach cancer): 1.4 mM
IC50 of A2780 Ovarian cancer (mg/ml) ([11]; value in brackets): (0.06) mg/ml
IC50 ([11]; read-out: IC50 mM of A2780 Ovarian cancer): 0.17 mM
time-dependent PDH activity [12]: greater increase in PDH activity during the first 6 hours, with the activity remaining relatively stable beyond 6 hours
IC50 of HCT-116 Colorectal cancer cell line (mg/ml) [13]: (0.12) mg/ml
IC50 of HepG2 Liver cancer (mg/ml) ([14]; value in brackets): (0.72) mg/ml
IC50 ([14]; read-out: IC50 mM of HepG2 Liver cancer): 2.1 mM
IC50 [15]: 311 µM
anticancer efficacy and metastasis (luminescence imaging, ROI) [16]: the growth and metastasis of cancer tissues was not shown at all
growth of cancer cells / weight of cancer tissue [17]: significantly suppressed growth of cancer cells
human equivalent dose (HED) from NOAEL with safety factor of 10, intravenous ([18]; intravenous route): 1.61 mg/kg
human equivalent dose (HED) from NOAEL with safety factor of 10, oral ([18]; oral route): 7.22 mg/kg
IC50 [19]: 360 µM
IC50 of Colorectal cancer cell line [20]: 70 µg/mL
IC50 of Breast cancer cell line [21]: 40 µg/mL
IC50 of Brain cancer cell line [22]: 500 µg/mL
IC50 of PANC-1 Pancreatic cancer (mg/ml) ([23]; value in brackets): (0.14) mg/ml
IC50 ([23]; read-out: IC50 mM of PANC-1 Pancreatic cancer): 0.42 mM
IC50 of A549 Lung cancer (mg/ml) ([24]; value in brackets): (0.79) mg/ml
IC50 ([24]; read-out: IC50 mM of A549 Lung cancer): 2.3 mM
ascorbic acid concentration in cancer cells [25]: increased
